Assay results published in article PMC8601123, “Drug delivery, biodistribution and anti-EGFR activity: theragnostic nanoparticles for simultaneous in vivo delivery of tyrosine kinase inhibitors and kinase activity biosensors” (Nanoscale, 2021).

What was measured:
EGFR [1] = assay: EGFR activation by EGF in SW48 cells, western blot; type: cell-based; details: serum-free 24 h, 1 h pre-treatment, EGF 100 ng/mL 5 min, western blot (Fig. S1)
Procedure: To test the ability of lipopolyplexes to deliver pDNA and inhibitor we used LIM1215 colon cancer cells. […] As a control, to check the response of the colorectal cancer cell lines to this class of TKI, we prepared an analogue of 1, with the disulfide-linked peptide replaced with an –OMe group. TKI analogue MeO-[PEG6-IPQA]
Optimization of EGFR inhibitor delivery to target cells
Figure S1. Effect of MeO-[PEG6-IPQA] (8) on EGFR activation by EGF in SW48 cells.
Cells were seeded in 6-well plate, 48 h later media was changed for media without serum. 24 h later cells were pre-treated with MeO-[PEG6-IPQA] (8) at indicated concentrations for 1 h followed by treatment with EGF (100 ng/mL) for 5 min. Cells were lysed and subjected to western blot analysis for activation/phosphorylation of EGFR and downstream signalling […]
(1 picture or pasted object on this page, not shown here)

EGFR [2] = biological target: T1, EGFR (Homo sapiens, UniProt P00533); assay: FRET-FLIM analysis of EGF-induced EGFR activity with Picchu-X biosensor in cells; type: cell-based; set-up: inhibition of EGF-induced EGFR activity (FRET-FLIM), difference between the groups: dose or concentration left out as unconfirmed
T1 construct: endogenous in cells; host or cells: LIM1215 colon cancer cells
Source text: We then prepared variant lipopolyplex formulations, based on CLA1 and including the EGFR inhibitor K16Cys-S-S-[PEG6-IPQA] 1 (Table 1). […] For efficient perfusion through the leaky endothelial cells of the tumor, lipopolyplexes must be <150 nm in diameter. […] We also carried out in vitro studies to check that the disulfide linker between K16Cys and PEG-IPQA was labile under pseudo-intracellular conditions (GSH/GSSG, HEPES, pH 7.2).[66] […] Next, we assessed the effectiveness of K16Cys-S-S-[PEG6-IPQA] 1 as an inhibitor of EGFR activity as a free therapeutic or within lipopolyplexes by utilizing FRET-FLIM and validating our results by western blot (WB) techniques. […]
A10 μM solution of the non-radiolabelled F1LA1 K16Cys-S-S-[PEG6-IPQA] lipopolyplex was applied to cells at 60% confluence in 96-well-plates. […] Time-domain fluorescence lifetime images were acquired via time correlated single photon counting (TCSPC) at a resolution of 256 by 256 pixels, with 256 time bins and 100 frames accumulated over 300 seconds, via excitation and emission filters suitable for the detection of GFP fluorescence (Excitation filter: Semrock FF01-470/22 nm; Beam Splitter: Edmund 48NT-392 30R/70 T; Emission filter: Semrock FF01-510/20 nm). […]

EGFR [3] = biological target: T1, EGFR; assay: Western blot of EGFR phosphorylation, time course of inhibitory effect; type: cell-based; details: for duration of EGFR inhibition: western blot (Fig. 2d)
Source text: (§1) We then prepared variant lipopolyplex formulations, based on CLA1 and including the EGFR inhibitor K16Cys-S-S-[PEG6-IPQA] 1 (Table 1). […] For efficient perfusion through the leaky endothelial cells of the tumor, lipopolyplexes must be <150 nm in diameter. […] We also carried out in vitro studies to check that the disulfide linker between K16Cys and PEG-IPQA was labile under pseudo-intracellular conditions (GSH/GSSG, HEPES, pH 7.2).[66] […] Next, we assessed the effectiveness of K16Cys-S-S-[PEG6-IPQA] 1 as an inhibitor of EGFR activity as a free therapeutic or within lipopolyplexes by utilizing FRET-FLIM and validating our results by western blot (WB) techniques. Activation of EGFR in cells treated with EGF (natural ligand for EGFR) was evident by decreasing lifetime of green fluorescent protein (GFP) in Picchu-X biosensor (Fig. 2c) and by appearance of phosphorylated EGFR band in WB image (Fig. 2d). In both cases pre-treatment with MeO-[PEG6-IPQA]
Fig. 2 Effect of different lipopolyplex formulations and drug loading on the expression of EGFR in targeted cells and inhibition of its activity upon stimulation with EGF. LIM1215 cells transfected with different lipopolyplexes without inhibitor (CLA1–4, NAE1–4, NGE1–4) (a) or with increasing amount of inhibitor per particle (F1LA1–3, F2LA1–3) (b) 24 h after seeding.
LIM1215, DiFi, SW48 and DLD1 colon cancer cell lines (independently validated by STR DNA fingerprinting at The Institute of Cancer Research (London, UK), were maintained in RPMI-1640 (Life Technologies Ltd). Antibodies: anti-EGFR (clone D38B1) anti-p-Y1173-EGFR (clone 53A5) were from Cell Signaling Technology Ltd.

LIM1215 xenografts = assay: In vivo radioactive organ biodistribution in LIM1215 xenograft mice; set-up: species or system CD1 nu/nu mice
Procedure: Fig. 3 In vivo radioactive organ biodistribution data presented in % Injected Dose per gram (%ID g^−1) for MeO-[PEG6-[^125I]-IPQA] 8 (black columns) and F1LA1 K16Cys-SMal-[PEG3-[^125I]-IPQA] 9 lipopolyplex (grey columns) 3, 6 and 24 h after injection. The tumor %ID g^−1 at 3, 6 and 24 h for both tracers is represented on a separate graph.
All animal studies were approved by the University College London Biological Services Ethical Review Committee and licensed under the UK Home Office regulations and the Guidance for the Operation of Animals (Scientific Procedures) Act 1986 (Home Office, London, United Kingdom). 12 female 6–8 weeks old CD1 nu/nu mice (Charles River Laboratories, UK) were injected subcutaneously in the right flank with 2 × 10^6 LIM1215 cells in 100 μL PBS. Once palpable tumors were measure in three orthogonal directions using the following equation: length × height × width × π/6. Once tumors had reached approximately 70–100 mm^3 mice were randomly divided into 2 groups; group 1 received an intravenous injection of 0.5Mbq MeO-[PEG6-[^125I]-IPQA] 8 (n = 6), group 2 received an intravenous injection of 0.5MBq F1LA1 K16Cys-SMal-[PEG3-[^125I]-IPQA]-lipopolyplex (n = 6). Mice were then culled at 3, 6 and 24 hours (n = 2 per time point) and all organs were taken, weighed and ^125I uptake quantified using a gamma counter (Wizard, PerkinElmer) to obtain % Injected dose per gram (%ID g^−1).

[4] = cited from earlier work
Source text: This approach also allowed us to further investigate the basis for the enhanced circulation and better tumour selectivity afforded by nanoparticle delivery of small molecule therapeutics. […] This phenomenon will need further investigation of potential differences in trafficking of the drug within the cell post-uptake, both in terms of the subcellular compartments involved and kinetics of intracellu ...

[5] = Cleavage of the disulfide linker under pseudo-intracellular conditions; type: physicochemical; details: reducing pseudo-intracellular conditions, GSH/GSSG, HEPES, pH 7.2 (Fig. S7)
Source text: as §1

Compound: C=CC(=O)Nc1cc2c(Nc3cccc(I)c3)ncnc2cc1OCCOCCOCCOCCOCCOCCOC [Compound 8, MeO-[PEG6-IPQA]]
- inhibition of EGFR activation by EGF (EGFR [1]): potent inhibitor of EGFR activation
- lifetime of GFP in Picchu-X biosensor after EGF (EGFR [2]; pre-treatment for 1 h, then EGF (Fig. 2c)): remained at baseline levels
- duration of EGFR inhibition (EGFR [3]; free agent): 24 h
- level of EGFR phosphorylation (EGFR [3]; pre-treatment for 1 h, EGF stimulation, western blot (Fig. 2d, line 8 vs. line 2)): significantly lower than in the sample without inhibitor
- organ uptake (LIM1215 xenografts; i.v. 0.5 MBq, 3, 6 and 24 h, 125I gamma counting, %ID g-1 (Fig. 3)): high uptake in gallbladder and intestines at 3 and 6 h
- clearance route (LIM1215 xenografts; i.v. 0.5 MBq, 125I gamma counting, n = 2 per time point): rapidly cleared via the hepatobiliary route
- time of highest tumor uptake (LIM1215 xenografts; i.v. 0.5 MBq, time points 3, 6 and 24 h, gradual reduction over 24 h): 3 h

Compound: C=CC(=O)Nc1cc2c(Nc3cccc(I)c3)ncnc2cc1OCCOCCOCCOCCOCCOCCF [[^18F]F-PEG6-IPQA]
- selectivity for tumour cells [4]: little selectivity for tumour cells
- in vivo clearance ([4]; compared with Mo-IPQA): quicker in vivo clearance

Compound: K16Cys-S-S-[PEG6-IPQA] [Compound 1]
- time to cleavage of disulfide linkage [5]: ≤ 5 min
- inhibition of EGF-induced EGFR activity (FRET-FLIM), difference between the groups (EGFR [2]; free agent, P = 0.03 (Fig. 2c legend)): statistically significant
- duration of EGFR inhibition (EGFR [3]; delivered within lipopolyplexes): up to 48 h
- EGFR activity, inhibitor within lipopolyplexes (EGFR [3]; delivered within lipopolyplexes, western blot (Fig. 2d, lines 3-7 vs. line 2)): equally low levels as the free drug
